Consider three compounds from patent US20240300886A1, “ARYLCYCLOHEXYLAMINE DERIVATIVES AND THEIR USE IN THE TREATMENT OF PSYCHIATRIC DISORDERS” (GILGAMESH PHARMACEUTICALS, INC., priority 2021, published 2024).

Series [1] has as its system immobility time in the FST. Put plainly: Forced swim test (FST) in rats. The series is classed as in vivo, Sprague-Dawley rats. The settings on record: s.c., 23.5-h pre-treatment time. On the procedure:
Disclosed compounds were tested in the forced swim test (FST) in rats with a 23.5-h pre-treatment time according to the following procedures.
Animals. Male Sprague-Dawley rats, aged 8-10 weeks, were used in the experiments. Animals were housed in groups of 2 under controlled temperature (22±3° C.) and relative humidity (30-70%) conditions, with 12-hour light/dark cycles, and with ad libitum food and water. All efforts were made to minimize suffering.
Drugs and Drug Administration. Test compounds, saline vehicle, and the positive control desipramine were administered subcutaneously (s.c.), with doses calculated based on the freebase. Normal saline was used as the vehicle for compounds provided as the HCl salt, while saline acidified with 1-2 molar equivalents of HCl was used as the vehicle for compounds provided as the freebase (to form the soluble HCl salt in situ). All compounds were administered at a volume of 5 mL/kg. Test compounds and vehicle were administered 0.5 h after the start of the training swim (Swim 1) and 23.5 h before the test swim (Swim 2). […]
Behavioral scoring was conducted by observers who were blind to the treatment groups. Animals were continuously observed during Swim 2 and the total time spent engaging in the following behaviors was recorded: immobile, swimming, and climbing. […]

Series [2] in a line: Stability in liver microsomes (Example 21), SD rat. The settings on record: male, pH 7.4, 0.5 mg/mL protein. The series is classed as in vitro ADME. On the procedure: (§1) General Procedure. Briefly, test compounds (final concentration 1 μM) were incubated in duplicate with liver microsomes from male animals of the indicated species (final protein concentration 0.5 mg/mL) in 50 mM sodium phosphate buffer (pH 7.4) with or without NADPH (1 mM). Total incubation volume was 500 μL. At 0, 5, 15, 30, and 60 min, aliquots of 50 μL were withdrawn, quenched with acetonitrile (150 μL), and analyzed for parent compound remaining using a fit-for-purpose LC-MS/MS method. Intrinsic clearance and half-life were calculated. Clearance values below zero were rounded to zero.
On the technique in general: Liver microsomes are a subcellular fraction often used to study metabolism.

In series [3] the target is serotonin transporter (SERT) (Homo sapiens (Human), UniProt P31645). Description: SERT competition radioligand binding ([3H]imipramine). The settings on record: for Ki: Human recombinant (CHO cells), 2.0 nM [3H]imipramine. On the procedure:
Disclosed compounds were tested for their binding affinity at the serotonin transporter (SERT) using a competition radioligand binding assay (Eurofins Cerep). Assay conditions are described in Table 16 below.

The nature of series [4]: Comparative oral pharmacokinetics of 2R, 2S and 2-F-DCK in mice. The series is classed as in vivo, C57BL/6 mice. The settings on record: 10 mg/kg po; for Cmax / half-life / AUC(0-t): male, C57BL/6; for half-life: read-out: t1/2 (po); for AUC(0-t): read-out: AUC0-last (po) (converted). Here is the method:
Animals. Male C57BL/6 mice were used in these studies. Aminals were randomly assigned to treatment groups and were fasted for 4 h before dosing.
Drugs. Test compounds were dissolved in a vehicle consisting of normal saline, They were then administered orally (po) at a dose of 10 mg/kg (calculated based on freebase) and at a volume of 10 mL/kg body weight.
Sample Collection and Bioanalysis. Blood samples (approximately 60 μL) were collected under light isoflurane anesthesia (Surgivet®) from the retro orbital plexus at 0.08, 0.25, 0.5, 1, 2, 4, 8, and 24 h (4 animals per time point). Immediately after blood collection, plasma was harvested by centrifugation at 4,000 rpm for 10 min at 4° C. and samples were stored at −70±10° C. until bioanalysis. Following blood collection, animals were immediately sacrificed, the abdominal vena-cava was cut open, and the whole body was perfused from the heart using 10 mL of normal saline, and brain samples were collected from all animals. After isolation, brain samples were rinsed three times in ice-cold normal saline (for 5-10 seconds/rinse using ˜5-10 mL normal saline in disposable petri dish for each rinse) and dried on blotting paper. Brain samples were homogenized using ice-cold phosphate-buffered saline (pH 7.4). Total homogenate volume was three times the tissue weight. All homogenates were stored at −70±10° C. until bioanalysis. For bioanalysis, 25 μL aliquots of plasma/brain study samples or spiked plasma/brain calibration standards were added to individual pre-labeled micro-centrifuge tubes followed by 100 μL of an internal standard solution (glipizide, 500 ng/mL in acetonitrile) except for blanks, where 100 μL of acetonitrile was added. Samples were vortexed for 5 minutes and then centrifuged for 10 minutes at 4,000 rpm at 4° C. Following centrifugation, 100 μL of each clear supernatant was transferred to a 96 well plate and analyzed with a fit-for-purpose LC-MS/MS method, with authentic samples of each analyte used for calibration and identification.
Data Analysis. Pharmacokinetic parameters were estimated using the non-compartmental analysis tool of Phoenix® WinNonlin software (Ver 8.0).

Series [5] is described as follows: Stability in liver microsomes (Example 21), cynomolgus monkey. The conditions noted are these: male, pH 7.4, 0.5 mg/mL protein. It counts as in vitro ADME. On the procedure: as §1

Where two headings read alike, the source gives them in different places.

In the case of `N[C@]1(c2ccc(F)cc2)CCCCC1=O` [Compound 1S, (S)-2-amino-2-(4-fluorophenyl)cyclohexan-1-one], the “immobility time in the FST relative to vehicle” value in series [1] is “reduced immobility time”.

On to `CN[C@@]1(c2ccc(F)cc2)CCCCC1=O` [Compound 2R, (R)-2-(4-fluorophenyl)-2(methylamino)cyclohexan-1-one], for which the intrinsic clearance (microsomal CLint) at 1 μM in series [2] was determined as 16.2 µL/min/mg. Further, the Ki in series [3] was 6.2 µM. In series [3] (human recombinant SERT), the “SERT binding potency relative to 2S (more potent)” value was ~2 fold. Also, in series [1], the “immobility time in the FST relative to vehicle” value is reported as “reduced immobility time”. In series [4] (mouse brain), the Cmax came to 3280 ng/g, the half-life is 2.97 h and the “AUC0-last (po)” value is 200464 ng·min/g. Also, in series [4] (mouse plasma), the Cmax was determined as 1.18 µg/mL, the AUC(0-t) is 1.12 µg·h/mL and the half-life stood at 1.38 h. For the same compound, in series [5], the microsomal CLint at 1 μM was 9.5 µL/min/mg.

`CN[C@]1(c2ccc(F)cc2)CCCCC1=O` [Compound 2S, (S)-2-(4-fluorophenyl)-2-(methylamino)cyclohexan-1-one]: the microsomal CLint at 1 μM in series [2] was found to be 14.1 µL/min/mg. Besides, the Ki in series [3] was determined as 12 µM. Also, in series [4] (mouse brain), the Cmax is 3540 ng/g, the half-life came out at 2.18 h and the “AUC0-last (po)” value was 123388 ng·min/g. In series [4] (mouse plasma), the Cmax was 1.39 µg/mL, the AUC(0-t) was 0.94 µg·h/mL and the half-life is 1.48 h. The microsomal CLint at 1 μM in series [5] came out at 15.3 µL/min/mg.

As usually defined, the microsomal CLint is the rate of metabolic loss divided by the concentration. A word on the Ki: it is the equilibrium dissociation constant of an inhibitor or competing ligand from its target. Usually Cmax stands for the maximum level reached in the sampled fluid or tissue.
